We go through 3 compounds from PMC10824666 (Nature Cancer, 2023).

Experiment in all cases: biochemical
What all share (set-up): Eurofins DiscoverX kinase panel, competitive binding assay at 1 uM, percent of DMSO control

One assay addresses BMPR1A (Homo sapiens, UniProt P36894). The settings on record: competitive binding, percent of DMSO control. The gist of the method:
(§1)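 Competitive binding assay across a 96-kinase panel with KIF18A compounds at 1 µM; values given as percentage of control (POC), single experiment.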

The target of a further assay is CAMK2D (Homo sapiens, UniProt Q13557). Conditions: competitive binding, percent of DMSO control. The method, boiled down: as §1
In the next assay the target is T1, FLT3 (Homo sapiens, UniProt P36888).
T1 sequence (P36888 1-993): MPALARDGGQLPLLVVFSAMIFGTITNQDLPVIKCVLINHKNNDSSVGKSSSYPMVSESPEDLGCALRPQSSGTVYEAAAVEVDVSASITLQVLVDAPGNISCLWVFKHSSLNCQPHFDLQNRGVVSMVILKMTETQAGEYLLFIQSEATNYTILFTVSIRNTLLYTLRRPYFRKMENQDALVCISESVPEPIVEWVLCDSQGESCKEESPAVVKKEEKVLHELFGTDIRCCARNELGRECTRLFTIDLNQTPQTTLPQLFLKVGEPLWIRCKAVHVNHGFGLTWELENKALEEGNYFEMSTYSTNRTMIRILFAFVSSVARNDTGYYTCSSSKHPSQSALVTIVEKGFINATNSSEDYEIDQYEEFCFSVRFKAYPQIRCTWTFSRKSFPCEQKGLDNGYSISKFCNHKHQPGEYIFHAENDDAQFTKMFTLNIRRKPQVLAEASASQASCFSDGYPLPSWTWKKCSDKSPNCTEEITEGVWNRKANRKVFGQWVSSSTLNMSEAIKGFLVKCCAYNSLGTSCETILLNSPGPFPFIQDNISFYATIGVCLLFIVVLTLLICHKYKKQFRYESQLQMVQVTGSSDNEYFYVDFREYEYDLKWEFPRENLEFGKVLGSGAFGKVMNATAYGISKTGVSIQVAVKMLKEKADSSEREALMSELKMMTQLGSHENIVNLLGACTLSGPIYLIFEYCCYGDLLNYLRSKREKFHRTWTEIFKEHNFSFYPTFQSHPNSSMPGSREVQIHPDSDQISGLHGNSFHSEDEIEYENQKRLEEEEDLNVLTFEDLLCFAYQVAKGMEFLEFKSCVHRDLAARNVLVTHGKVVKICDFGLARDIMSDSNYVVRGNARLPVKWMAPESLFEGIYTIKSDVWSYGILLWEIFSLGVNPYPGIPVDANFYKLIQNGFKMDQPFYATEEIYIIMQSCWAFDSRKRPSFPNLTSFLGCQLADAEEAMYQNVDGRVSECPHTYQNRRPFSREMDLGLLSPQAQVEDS
The settings on record: competitive binding, percent of DMSO control. The gist of the method:
as §1

The target of the next assay is T2, PKB α (Homo sapiens, UniProt P31749).
T2 construct: gene AKT1
The settings on record: competitive binding, percent of DMSO control. The method, boiled down:
as §1

Another assay has as its target T3, Plk 1 (Homo sapiens, UniProt P53350).
T3 construct: gene PLK1
The settings on record: competitive binding, percent of DMSO control. The method, boiled down:
as §1

A further assay has as its target T4, PKR (Homo sapiens, UniProt P19525).
T4 construct: gene EIF2AK2
Conditions: read-out: Kinome Profiling performed by Eurofins DiscoverX / AM-5308, 1.0 µM / POC; competitive binding, percent of DMSO control. The gist of the method: as §1

[1] abbreviates: read-out: Kinome Profiling performed by Eurofins DiscoverX / AM-0277, 1.0 µM / POC.
The mark [2] stands for this setting: read-out: Kinome Profiling performed by Eurofins DiscoverX / AM-1882, 1.0 µM / POC.
Setting [3] is: read-out: Kinome Profiling performed by Eurofins DiscoverX / AM-5308, 1.0 µM / POC.

Structures are written as SMILES. Where two headings read alike, the source gives them in different places.

CAMK2D, sequence (Q13557 whole entry): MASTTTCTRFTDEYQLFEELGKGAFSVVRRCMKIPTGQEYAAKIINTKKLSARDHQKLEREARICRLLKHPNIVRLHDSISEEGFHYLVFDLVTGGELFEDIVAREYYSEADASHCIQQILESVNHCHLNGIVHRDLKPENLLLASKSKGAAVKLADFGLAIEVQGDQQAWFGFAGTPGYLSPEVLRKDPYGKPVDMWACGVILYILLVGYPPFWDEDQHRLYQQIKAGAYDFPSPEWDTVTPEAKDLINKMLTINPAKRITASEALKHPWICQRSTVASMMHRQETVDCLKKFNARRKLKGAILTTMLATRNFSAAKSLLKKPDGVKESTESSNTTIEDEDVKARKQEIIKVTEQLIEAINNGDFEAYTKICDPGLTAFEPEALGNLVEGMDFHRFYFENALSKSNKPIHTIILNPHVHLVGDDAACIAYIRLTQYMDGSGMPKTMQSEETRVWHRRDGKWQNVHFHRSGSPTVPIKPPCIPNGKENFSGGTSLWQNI
T3 sequence (P53350 whole entry): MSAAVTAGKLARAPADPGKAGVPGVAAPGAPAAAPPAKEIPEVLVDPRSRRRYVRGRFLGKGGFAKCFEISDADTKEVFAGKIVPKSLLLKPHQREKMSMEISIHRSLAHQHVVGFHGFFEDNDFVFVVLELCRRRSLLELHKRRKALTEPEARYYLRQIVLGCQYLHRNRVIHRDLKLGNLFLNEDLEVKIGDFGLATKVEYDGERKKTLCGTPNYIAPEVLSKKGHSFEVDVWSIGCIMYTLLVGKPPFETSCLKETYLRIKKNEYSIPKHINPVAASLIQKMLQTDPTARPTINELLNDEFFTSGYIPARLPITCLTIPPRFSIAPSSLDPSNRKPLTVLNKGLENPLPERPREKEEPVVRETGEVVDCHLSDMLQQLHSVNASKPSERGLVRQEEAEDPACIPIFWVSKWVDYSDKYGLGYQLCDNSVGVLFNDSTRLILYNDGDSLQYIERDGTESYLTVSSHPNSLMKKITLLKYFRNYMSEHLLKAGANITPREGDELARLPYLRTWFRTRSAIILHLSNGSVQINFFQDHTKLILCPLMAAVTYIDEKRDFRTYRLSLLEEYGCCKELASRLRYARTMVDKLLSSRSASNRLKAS
T2 sequence (P31749 whole entry): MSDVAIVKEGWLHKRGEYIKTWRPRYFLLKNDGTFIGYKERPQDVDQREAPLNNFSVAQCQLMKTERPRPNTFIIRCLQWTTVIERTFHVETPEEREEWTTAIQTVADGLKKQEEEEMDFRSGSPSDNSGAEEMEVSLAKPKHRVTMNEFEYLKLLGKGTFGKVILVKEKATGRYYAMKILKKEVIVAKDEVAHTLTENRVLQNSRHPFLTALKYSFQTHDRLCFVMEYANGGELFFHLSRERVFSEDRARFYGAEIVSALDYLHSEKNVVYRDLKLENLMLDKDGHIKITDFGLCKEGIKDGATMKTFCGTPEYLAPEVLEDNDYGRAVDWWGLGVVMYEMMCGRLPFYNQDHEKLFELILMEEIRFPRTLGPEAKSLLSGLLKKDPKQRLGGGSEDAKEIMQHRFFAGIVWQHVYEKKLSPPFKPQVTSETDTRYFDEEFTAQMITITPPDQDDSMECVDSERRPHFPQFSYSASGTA
BMPR1A, sequence (P36894 whole entry): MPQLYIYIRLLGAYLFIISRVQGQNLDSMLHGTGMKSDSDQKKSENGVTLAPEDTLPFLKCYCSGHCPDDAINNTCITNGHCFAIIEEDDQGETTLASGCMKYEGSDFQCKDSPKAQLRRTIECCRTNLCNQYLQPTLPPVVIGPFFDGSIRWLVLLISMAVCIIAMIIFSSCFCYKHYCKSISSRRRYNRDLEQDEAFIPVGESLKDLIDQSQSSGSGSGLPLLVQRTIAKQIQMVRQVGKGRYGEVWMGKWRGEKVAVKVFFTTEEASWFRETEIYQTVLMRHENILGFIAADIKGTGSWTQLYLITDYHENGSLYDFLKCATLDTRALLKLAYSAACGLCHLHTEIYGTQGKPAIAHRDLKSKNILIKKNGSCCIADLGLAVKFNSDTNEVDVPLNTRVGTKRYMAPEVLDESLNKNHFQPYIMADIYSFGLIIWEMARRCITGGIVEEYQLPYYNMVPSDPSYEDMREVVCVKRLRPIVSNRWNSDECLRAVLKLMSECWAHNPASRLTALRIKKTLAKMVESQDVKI
T4 sequence (P19525 whole entry): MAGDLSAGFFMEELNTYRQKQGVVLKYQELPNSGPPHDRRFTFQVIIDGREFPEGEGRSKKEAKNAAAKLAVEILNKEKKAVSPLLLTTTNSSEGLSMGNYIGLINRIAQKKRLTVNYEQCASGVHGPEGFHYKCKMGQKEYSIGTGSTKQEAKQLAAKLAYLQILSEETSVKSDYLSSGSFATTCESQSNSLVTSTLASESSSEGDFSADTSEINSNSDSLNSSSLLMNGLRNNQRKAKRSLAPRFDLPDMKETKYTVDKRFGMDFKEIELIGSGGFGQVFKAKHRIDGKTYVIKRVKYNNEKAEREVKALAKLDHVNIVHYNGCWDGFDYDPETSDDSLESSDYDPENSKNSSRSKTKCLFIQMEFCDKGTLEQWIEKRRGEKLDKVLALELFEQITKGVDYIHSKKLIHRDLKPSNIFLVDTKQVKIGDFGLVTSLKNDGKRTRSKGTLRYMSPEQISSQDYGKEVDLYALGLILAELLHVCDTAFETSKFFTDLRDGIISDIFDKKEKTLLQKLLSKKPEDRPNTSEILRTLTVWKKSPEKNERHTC

For `CC(C)(CO)Nc1ccc(C(=O)Nc2cccc(S(=O)(=O)C3CCCC3)c2)c(N2CCC3(CC2)CC3)n1` [AM-0277], the remaining activity at 1 µM at BMPR1A (setting [1]) was 100%; on CAMK2D (setting [1]), 91%; on FLT3 (setting [1]) it was 94%; at PKB α (setting [1]), 94%; on Plk 1 (setting [1]), 100%.

As to `CC(C)(C)NS(=O)(=O)c1cccc(NC(=O)c2ccc(S(=O)(=O)NC(C)(C)C)cc2N2CCC3(CC2)CC3)c1` [AM-1882], the remaining activity at 1 µM at BMPR1A (setting [2]) was 100%; on CAMK2D (setting [2]), 100%; on FLT3 (setting [2]) it was 88%; at PKB α (setting [2]), 100%; at Plk 1 (setting [2]) it was 100%.

As to `C[C@@H]1CN(c2cccc(NC(=O)c3ccc(NS(=O)(=O)CCO)cc3N3CCC4(CC3)CC4)n2)CCO1` [AM-5308], the remaining activity at 1 µM was 93.5% at BMPR1A (setting [3]); 58.5% at CAMK2D (setting [3]); 90.5% on FLT3 (setting [3]); 100% on PKB α (setting [3]); 90% at PKR; 95% at Plk 1 (setting [3]).
